The test system of test [1] is mixture of Pseudomonas aeruginosa, Klebsiella pneumoniae, Staphylococcus aureus, and Bacillus subtilis. In words: Growth inhibition assay (microtiter plate, OD580). The class given is cell-based. Particulars: for I90 value: 24 hr; for % Inhibition of growth by single active / inhibition at 0.39 µg/mL / inhibition at 0.78 µg/mL / inhibition at 1.56 µg/mL / inhibition at 3.13 µg/mL / inhibition at 6.25 µg/mL / inhibition at 12.5 µg/mL / inhibition at 25 µg/mL: 24 h; for inhibition at 0.39 µg/mL / inhibition at 0.78 µg/mL / inhibition at 1.56 µg/mL / inhibition at 3.13 µg/mL / inhibition at 6.25 µg/mL / inhibition at 12.5 µg/mL / inhibition at 25 µg/mL: read-out: % Inhibition of growth by single active. The source says:
Growth Inhibition Assay. […] Regardless of the mechanism of action, the impact of a biocide (or combination of biocides) can be measured over time on the basis of an increase in the size of the community.
The assay measures the efficacy of one or more biocides at preventing growth of a consortium of bacteria in a dilute mineral salts medium. The medium contains (in mg/l) the following components: FeCl3.6H2O (1); CaCl2.2H2O (10); MgSO4.7H2O (22.5); (NH4)2SO4 (40); KH2PO4 (10); K2HPO4 (25.5); Yeast Extract (10); and glucose (100). After all components are added to deionized water, the pH of the medium is adjusted to 7.5. Following filter sterilization, aliquots are dispensed in 100 ul quantities to sterile microtiter plate wells. Dilutions of DBMAL and/or “Biocide B” are then added to the microtiter plate. After preparing the combinations of actives as illustrated below, each well is inoculated with 100 μl of a cell suspension containing ca. […] cells per milliliter of a mixture of Pseudomonas aeruginosa, Klebsiella pneumoniae, Staphylococcus aureus, and Bacillus subtilis. The final total volume of medium in each well is 300 μl. Once prepared as described herein, the concentration of each active ranges from 25 ppm to 0.19 ppm as illustrated in Table 1. The resulting matrix allows testing of eight concentrations of each active and 64 combinations of actives in the ratios (of actives).
Controls (not shown) contain the medium with no biocide added. After preparing the combinations of actives as illustrated above, each well is inoculated with 100 μl of a cell suspension containing ca. […] cells per milliliter of a mixture of Pseudomonas aeruginosa, Klebsiella pneumoniae, Staphylococcus aureus, and Bacillus subtilis. The final total volume of medium in each well is 300 μl.
Immediately after the microtiter plates are prepared, the optical density (OD) readings for each well is measured at 580 nm and the plates are then incubated at 37° C. for 24 hr. After the incubation period, the plates are gently agitated before OD580 values are collected. The OD580 values at T0 are subtracted from T24 values to determine the total amount of growth (or lack thereof) that occurs. These values are used to calculate the percent inhibition of growth caused by the presence of each biocide and each of the 64 combinations.
where • CDBMAL: Concentration of DBMAL required to inhibit ˜90% of bacterial growth when used alone • CB: Concentration of biocide (B) required to inhibit ˜90% of bacterial growth when used alone. • MDBMAL: Concentration of DBMAL required to inhibit ˜90% of bacterial growth when used in combination with biocide (B). • MB: Concentration of biocide (B) required to inhibit ˜90% of bacterial growth when used in combination with DBMAL
(§1) The SI values are interpreted as follows: • SI<1: Synergistic combination • SI=1: Additive combination • SI>1: Antagonistic combination
(§2) In the Examples below, the amounts of biocides in the solution are measured in mg per liter of solution (mg/l). Since solution densities are approximately 1.0, the mg/l measurement corresponds to weight ppm. Both units may therefore be used interchangeably in the Examples.

The subject of test [2] is mixture of Pseudomonas aeruginosa ATCC 10045 and Staphylococcus aureus ATCC 6538. In words: Kill assay (minimum biocide concentration, MBC). The class given is cell-based. The settings on record: single active, 37° C., 2 hours. On the procedure: The procedure is as follows.
as §1, §2

Read-outs that look alike come from different tables or passages of the source.

Consider `O=[N+]([O-])C(Br)=Cc1ccccc1` [BNS, bromonitrostyrene], for which the I90 value in test [1] (Example 2, single active) amounted to 6.25 mg/L. The “% Inhibition of growth by single active” value in test [1] (Table 5, 0.78 mg/l alone) is 19%; in test [1] (Table 5, 1.56 mg/l alone) it was 42%; in test [1] (Table 5, 3.13 mg/l alone), 75%.
`O=[N+]([O-])C(Br)(CO)CO` [Bronopol, 2-bromo-2-nitropropane-1,3-diol]: the “MBC (minimum biocide concentration needed to completely kill the bacterial cells), biocide alone” value in test [2] was greater than 150 µg/mL. In addition, the inhibition – broadly, the drop in the measured response relative to a control, in per cent – at 0.39 µg/mL in test [1] (Table 3, 0.39 mg/l alone) worked out at 0%. Further, the inhibition at 0.78 µg/mL in test [1] (Table 3, 0.78 mg/l alone) was 0%. For the same compound, in test [1] (Table 3, 1.56 mg/l alone), the inhibition at 1.56 µg/mL was found to be 0%. In test [1] (Table 3, 3.13 mg/l alone), the inhibition at 3.13 µg/mL was determined as 67%. In addition, in test [1] (Table 3, 6.25 mg/l alone), the inhibition at 6.25 µg/mL came out at 96%. Also, the inhibition at 12.5 µg/mL in test [1] (Table 3, 12.5 mg/l alone) was determined as 99%. Further, the inhibition at 25 µg/mL in test [1] (Table 3, 25.0 mg/l alone) was found to be 97%.
Take `N#CCCC(Br)(C#N)CBr` (stereo not drawn) [DBDCB, 1,2-Dibromo-2,4-dicyanobutane]: the inhibition at 0.39 µg/mL in test [1] (Table 9, 0.39 mg/l alone) came out at 0%. The inhibition at 0.78 µg/mL in test [1] (Table 9, 0.78 mg/l alone) stood at 0%. In addition, the inhibition at 1.56 µg/mL in test [1] (Table 9, 1.56 mg/l alone) came out at 17%. Further, the inhibition at 3.13 µg/mL in test [1] (Table 9, 3.13 mg/l alone) turned out to be 43%. Moreover, in test [1] (Table 9, 6.25 mg/l alone), the inhibition at 6.25 µg/mL is 100%. Also, the inhibition at 12.5 µg/mL in test [1] (Table 9, 12.5 mg/l alone) stood at 99%. The inhibition at 25 µg/mL in test [1] (Table 9, 25.0 mg/l alone) was determined as 97%. Besides, the I90 value in test [1] (Example 4, single active) amounted to 6.25 mg/L.
In the case of `NC(=O)C(Br)(Br)C(N)=O` [DBMAL, 2,2-dibromomalonamide], the “MBC (minimum biocide concentration needed to completely kill the bacterial cells), biocide alone” value in test [2] was 66.7 µg/mL. For the same compound, the inhibition at 0.39 µg/mL in test [1] (Table 3, 0.39 mg/l alone) amounted to 8%; in test [1] (Table 5, 0.39 mg/l alone) it was 1%; in test [1] (Table 7, 0.39 mg/l alone), 23%. Further, the inhibition at 0.78 µg/mL was found to be 12% in test [1] (Table 3, 0.78 mg/l alone); 58% in test [1] (Table 7, 0.78 mg/l alone); 11% in test [1] (Table 9, 0.78 mg/l alone). The inhibition at 1.56 µg/mL in test [1] (Table 3, 1.56 mg/l alone) is 13%; in test [1] (Table 7, 1.56 mg/l alone), 52%; in test [1] (Table 9, 1.56 mg/l alone), 14%. The inhibition at 3.13 µg/mL in test [1] (Table 3, 3.13 mg/l alone) was determined as 17%; in test [1] (Table 5, 3.13 mg/l alone), 34%; in test [1] (Table 7, 3.13 mg/l alone) it was 61%; in test [1] (Table 9, 3.13 mg/l alone) it was 20%. For the same compound, the inhibition at 12.5 µg/mL in test [1] (Table 3, 12.5 mg/l alone) worked out at 97%. The inhibition at 6.25 µg/mL in test [1] (Table 5, 6.25 mg/l alone) was determined as 65%; in test [1] (Table 7, 6.25 mg/l alone), 41%; in test [1] (Table 9, 6.25 mg/l alone), 100%. The inhibition at 25 µg/mL came to 98% in test [1] (Table 5, 25.0 mg/l alone) and 98% in test [1] (Table 7, 25.0 mg/l alone). Besides, the I90 value worked out at 12.5 mg/L in test [1] (Example 2, single active); 12.5 mg/L in test [1] (Example 3, single active); 6.25 mg/L in test [1] (Example 4, single active).
In the case of `N#CSCSC#N` [MBT, methylene bis(thiocyanate)], in test [1] (Example 3, single active), the I90 value was 0.78 mg/L. In addition, the “% Inhibition of growth by single active” value in test [1] (Table 7, 0.39 mg/l alone) was determined as 24%.

Values taken from US9288983B2, “Compositions of dibromomalonamide and their use as biocides” (Dow Global Technologies LLC, priority 2009, dated 2016).
